Assay results as given in ChEMBL document CHEMBL3853345, “Gabosines P and Q, new carbasugars from Streptomyces sp. and their α-glucosidase inhibitory activity” (Bioorg Med Chem Lett, 2016).

What was measured:
[1] = Inhibition of alpha-glucosidase (unknown origin) assessed as reduction in PNP release using PNPG as substrate preincubated for 10 mins followed by substrate addition measured after 40 mins by spectrophotometric method; design: species or system Homo sapiens
[2] = species: Homo sapiens; test: Potency index, ratio of acarbose IC50 to compound IC50 for alpha-glucosidase (unknown origin)

Structure (SMILES)	IC50 [1] [µM]	Ratio IC50 [2]
C[C@H]1O[C@H](O[C@H]2[C@H](O)[C@@H](O)[C@@H](O[C@H]3[C@H](O)[C@@H](O)C(O)O[C@@H]3CO)O[C@@H]2CO)[C@H](O)[C@@H](O)[C@@H]1N[C@H]1C=C(CO)[C@@H](O)[C@H](O)[C@H]1O (stereo partly drawn) [ACARBOSE]	663	
CC(=O)O[C@H]1C=C(CO)C(=O)[C@H](O)[C@H]1O	9.07	70
